The source of these data is ChEMBL document CHEMBL3621042, “Design, synthesis of novel tryptophan derivatives for antiplatelet aggregation activity based on tripeptide pENW (pGlu-Asn-Trp)” (Eur J Med Chem, 2015).

The target of data set [1] is T1, Integrin alpha-IIb/beta-3 (Oryctolagus cuniculus) (UniProt Q9TUN4+Q9TUN3). Put plainly: Antagonist activity at GP2b/3a receptor in New Zealand rabbit platelet-rich plasma assessed as inhibition of ADP-induced platelet aggregation at 500 uM preincubated for 1 min followed by addition of ADP by aggregometer.
The target of data set [2] is T1, Integrin alpha-IIb/beta-3 (Oryctolagus cuniculus). Put plainly: Antagonist activity at GP2b/3a receptor in New Zealand rabbit platelet-rich plasma assessed as inhibition of ADP-induced platelet aggregation at 100 uM preincubated for 1 min followed by addition of ADP by aggregometer.
In data set [3] the target is Integrin alpha-IIb/beta-3 (Homo sapiens, UniProt P05106+P08514). Put plainly: Antagonist activity at GP2b/3a receptor (unknown origin) assessed as inhibition of interaction with fibrinogen after 2 hrs by ELISA. The class given is protein-complex assay.
Integrin alpha-IIb/beta-3, sequence (P05106 27-788 limits assumed): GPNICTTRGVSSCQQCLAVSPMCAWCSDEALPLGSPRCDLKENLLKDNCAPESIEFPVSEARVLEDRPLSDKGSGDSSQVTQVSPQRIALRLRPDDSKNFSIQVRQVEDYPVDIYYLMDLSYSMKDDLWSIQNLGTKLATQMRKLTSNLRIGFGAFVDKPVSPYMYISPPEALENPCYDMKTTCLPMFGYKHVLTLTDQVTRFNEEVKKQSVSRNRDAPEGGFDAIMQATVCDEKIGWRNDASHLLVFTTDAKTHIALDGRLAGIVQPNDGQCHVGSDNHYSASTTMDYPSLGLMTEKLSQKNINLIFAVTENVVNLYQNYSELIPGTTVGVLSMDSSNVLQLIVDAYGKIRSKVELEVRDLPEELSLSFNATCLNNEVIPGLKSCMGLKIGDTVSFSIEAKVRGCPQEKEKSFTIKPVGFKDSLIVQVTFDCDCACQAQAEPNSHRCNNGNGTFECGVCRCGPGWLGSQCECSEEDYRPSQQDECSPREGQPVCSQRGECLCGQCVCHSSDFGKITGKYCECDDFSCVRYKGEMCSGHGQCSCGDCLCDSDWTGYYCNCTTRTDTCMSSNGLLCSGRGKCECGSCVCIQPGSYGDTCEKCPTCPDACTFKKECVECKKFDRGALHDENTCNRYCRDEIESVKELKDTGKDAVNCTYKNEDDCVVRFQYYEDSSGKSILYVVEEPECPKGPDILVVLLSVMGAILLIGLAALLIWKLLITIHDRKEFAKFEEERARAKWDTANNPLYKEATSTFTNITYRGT
Integrin alpha-IIb/beta-3, sequence (P08514 32-887 limits assumed): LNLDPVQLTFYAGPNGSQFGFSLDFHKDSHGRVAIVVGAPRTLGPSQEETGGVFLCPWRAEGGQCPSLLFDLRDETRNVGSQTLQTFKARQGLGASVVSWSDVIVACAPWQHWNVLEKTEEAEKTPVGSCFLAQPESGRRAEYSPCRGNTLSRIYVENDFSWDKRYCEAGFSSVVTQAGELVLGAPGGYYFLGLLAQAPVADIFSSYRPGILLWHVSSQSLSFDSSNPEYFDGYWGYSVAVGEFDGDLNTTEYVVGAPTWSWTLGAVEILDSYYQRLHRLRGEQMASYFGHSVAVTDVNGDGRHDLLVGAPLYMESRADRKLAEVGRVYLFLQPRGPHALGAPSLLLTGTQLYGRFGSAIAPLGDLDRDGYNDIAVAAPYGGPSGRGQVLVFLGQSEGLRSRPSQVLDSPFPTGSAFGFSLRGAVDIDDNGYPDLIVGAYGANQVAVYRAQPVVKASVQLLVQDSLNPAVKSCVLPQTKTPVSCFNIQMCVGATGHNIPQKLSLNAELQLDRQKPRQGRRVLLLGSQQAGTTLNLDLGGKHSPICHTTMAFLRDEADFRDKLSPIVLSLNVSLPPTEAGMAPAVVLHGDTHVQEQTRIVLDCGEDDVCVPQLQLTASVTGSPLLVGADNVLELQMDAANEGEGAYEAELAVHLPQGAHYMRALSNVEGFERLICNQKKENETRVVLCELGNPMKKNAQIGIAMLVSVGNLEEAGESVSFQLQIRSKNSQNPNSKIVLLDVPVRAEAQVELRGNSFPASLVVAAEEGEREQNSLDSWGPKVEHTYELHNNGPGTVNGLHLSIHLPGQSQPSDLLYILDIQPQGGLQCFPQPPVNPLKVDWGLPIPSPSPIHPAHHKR
Integrin alpha-IIb/beta-3, sequence (P08514 891-1039 limits assumed): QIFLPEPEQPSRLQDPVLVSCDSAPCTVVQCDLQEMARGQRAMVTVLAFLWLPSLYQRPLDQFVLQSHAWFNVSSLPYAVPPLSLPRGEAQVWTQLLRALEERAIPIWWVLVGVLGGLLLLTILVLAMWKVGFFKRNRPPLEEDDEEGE
The test system of data set [4] is Rattus norvegicus. Put plainly: Antithrombotic activity in Sprague-Dawley rat arteriovenous shunt thrombosis model assessed as wet/dry weight reduction of thrombus at 1 mg/kg, iv incubated for 30 mins prior to testing. The class given is functional.
In data set [5] the test system is Mus musculus. Put plainly: Toxicity in ICR mouse assessed as bleeding time at 1 mg/kg incubated for 30 mins prior to testing by tail transection method. The class given is organism-based. As to conditions: in vivo, 0.5 h.
For data set [6], the target named is T1, Integrin alpha-IIb/beta-3 (Oryctolagus cuniculus). As to conditions: New Zealand, Plasma, 1 to 1000 uM.
Description: Antagonist activity at GP2b/3a receptor in New Zealand rabbit platelet-rich plasma assessed as inhibition of ADP-induced platelet aggregation at 1 to 1000 uM preincubated for 1 min followed by addition of ADP by aggregometer
For data set [7], the system named is Mus musculus. The experiment in a line: Toxicity in ICR mouse assessed as bleeding time at 3 mg/kg incubated for 30 mins prior to testing by tail transection method. Format: organism-based. As to conditions: in vivo, 0.5 h.
Data set [8] deals with Rattus norvegicus. The experiment in a line: Antithrombotic activity in Sprague-Dawley rat arteriovenous shunt thrombosis model assessed as wet/dry weight reduction of thrombus at 3 mg/kg, iv incubated for 30 mins prior to testing. The class given is functional. More on the design: scale not given: the % may be the effect or the level left.
The test system of data set [9] is Rattus norvegicus. Put plainly: Antithrombotic activity in iv dosed Sprague-Dawley rat arteriovenous shunt thrombosis model assessed as wet/dry weight reduction of thrombus incubated for 30 mins prior to testing. The class given is functional, organism-based.
The subject of data set [10] is Mus musculus. Put plainly: Toxicity in ICR mouse assessed as bleeding time at 0.3 mg/kg incubated for 30 mins prior to testing by tail transection method. The class given is organism-based. As to conditions: in vivo, 0.5 h.

Structures are written as SMILES. Calls of active or inactive are those of the source. The rule behind the calls is not given here. Square brackets hold non-standard residues; d marks the D form. Peptide text beside a SMILES is read from it. pGlu = O=C1CC[C@@H](C(=O)O)N1

With `CCCCS(=O)(=O)N[C@@H](Cc1c[nH]c2ccc(OCCCCN3CCNCC3)cc12)C(=O)O`, the inhibition – broadly, the relative decrease from the control value, in per cent – in data set [1] was 61.2%. Regarding `O=C(O)[C@H](Cc1c[nH]c2ccc(OCCCCC3CCNCC3)cc12)NS(=O)(=O)c1ccc([N+](=O)[O-])cc1`, in data set [2], the inhibition is 45.3%.

In the case of `NC(=O)C[C@H](NC(=O)[C@@H]1CCC(=O)N1)C(=O)N[C@@H](Cc1c[nH]c2ccccc12)C(=O)O` ([pGlu]-Asn-Trp-OH), the inhibition in data set [2] was 21.4%; in [1], 38.7%. The IC50 (usually the concentration that gives 50% inhibition) in data set [3] turned out to be 12.5 µM. Further, the outcome in the data set on Rattus norvegicus [4] was inactive. Further, the Activity result in the data set with Mus musculus [5] is listed as “Non-toxic”. As to `CC(=O)N[C@@H](CC(N)=O)C(=O)N[C@@H](Cc1c[nH]c2ccccc12)C(=O)O` (Ac-Asn-Trp-OH), the inhibition in data set [1] was found to be 35.2%. `O=C(N[C@@H](Cc1c[nH]c2ccc(OCCCCC3CCNCC3)cc12)C(=O)O)c1ccccc1`: the values for the inhibition in data set [2] and in [1] were 27.9% and 96.2%, respectively.

As to `O=C(N[C@@H](Cc1c[nH]c2ccc(OCCCCC3CCNCC3)cc12)C(=O)O)c1cc(Cl)cc(Cl)c1`, the inhibition in data set [2] turned out to be 62.7%. With `CCCCS(=O)(=O)N[C@@H](Cc1c[nH]c2ccc(OCCCC3CCNCC3)cc12)C(=O)O`, the inhibition in data set [1] was 73.3%. For `O=C(N[C@@H](Cc1c[nH]c2ccc(OCCCC3CCNCC3)cc12)C(=O)O)c1ccccc1`, the inhibition in data set [1] was 92.7%. As to `O=C(O)[C@H](Cc1c[nH]c2ccc(OCCCCC3CCNCC3)cc12)NS(=O)(=O)c1ccccc1`, the inhibition in data set [2] amounted to 53.8%; in data set [1], 99.2%.

Consider `CC(=O)N[C@@H](CC(N)=O)C(=O)N[C@@H](Cc1c[nH]c2ccc(OCCCC3CCNCC3)cc12)C(=O)O`, for which the inhibition in data set [1] came out at 51.4%. Take `CCCC(=O)N[C@@H](Cc1c[nH]c2ccc(OCCCCN3CCNCC3)cc12)C(=O)O`: in data set [1], the inhibition is 79.1%. On the same count and under the same terms, the same measure for `CCCC(=O)N[C@@H](Cc1c[nH]c2ccc(OCCCCC3CCNCC3)cc12)C(=O)O`: 53.3%. With `O=C(N[C@@H](Cc1c[nH]c2ccc(OCCCCC3CCNCC3)cc12)C(=O)O)c1ccc(F)cc1`, the inhibition in data set [2] was determined as 54.9%. Same read-out and setting: the same measure for `COc1ccc(C(=O)N[C@@H](Cc2c[nH]c3ccc(OCCCCC4CCNCC4)cc23)C(=O)O)cc1`: 38.3%; for `O=C(N[C@@H](Cc1c[nH]c2ccc(OCCCCC3CCNCC3)cc12)C(=O)O)c1cccc(F)c1`: 53.4%. Take `CCCC(=O)N[C@@H](Cc1c[nH]c2ccc(OCCCN3CCN(C)CC3)cc12)C(=O)O`: the inhibition in [1] is 13.5%. For the molecule `O=C(N[C@@H](Cc1c[nH]c2ccc(OCCCN3CCNCC3)cc12)C(=O)O)c1ccccc1`, the inhibition in data set [1] was found to be 82.4%. Take `CCCCS(=O)(=O)N[C@@H](Cc1ccc(OCCCCC2CCNCC2)cc1)C(=O)O` [TIROFIBAN]: the result with Rattus norvegicus [4] was Active. Further, in data set [6], the inhibition entry is “Active”. For the same molecule, the Time in the data set with Mus musculus [5] is on record as 17 min. As for `O=C(O)[C@H](Cc1c[nH]c2ccc(OCCCCN3CCNCC3)cc12)NS(=O)(=O)c1ccccc1`, the inhibition in [1] is 57.5%. For `COc1ccc(S(=O)(=O)N[C@@H](Cc2c[nH]c3ccc(OCCCCC4CCNCC4)cc23)C(=O)O)cc1`, in data set [2], the inhibition is 39.3%. Take `CCCC(=O)N[C@@H](Cc1c[nH]c2ccc(OCCCN3CCNCC3)cc12)C(=O)O`: the inhibition in data set [1] is 84.3%. On the same count and under the same terms, the same measure for `O=C(O)[C@H](Cc1c[nH]c2ccc(OCCCC3CCNCC3)cc12)NS(=O)(=O)c1ccccc1`: 94.5%.

For the molecule `CCCC(=O)N[C@@H](Cc1c[nH]c2ccc(OCCC3CCNCC3)cc12)C(=O)O`, the inhibition in [1] is 29.5%. With `O=C(O)[C@H](Cc1c[nH]c2ccc(OCCCN3CCNCC3)cc12)NS(=O)(=O)c1ccccc1`, in data set [1], the inhibition is 55.3%. Turning to `Cc1ccc(S(=O)(=O)N[C@@H](Cc2c[nH]c3ccc(OCCCCC4CCNCC4)cc23)C(=O)O)cc1`, the inhibition in data set [2] was found to be 43.1%. On the same count and under the same terms, the figure for `O=C(N[C@@H](Cc1c[nH]c2ccc(OCCCCC3CCNCC3)cc12)C(=O)O)c1ccc([N+](=O)[O-])cc1` is 43.5%. For the molecule `CCCC(=O)N[C@@H](Cc1c[nH]c2ccc(OCCCC3CCNCC3)cc12)C(=O)O`, the inhibition in data set [1] was determined as 71.2%. In the case of `CCCC(=O)N[C@@H](Cc1c[nH]c2ccc(OCCN3CCNCC3)cc12)C(=O)O`, in data set [1], the inhibition turned out to be 58.3%. Take `CCCCS(=O)(=O)N[C@@H](Cc1c[nH]c2ccc(OCCCN3CCNCC3)cc12)C(=O)O`: the inhibition in data set [1] turned out to be 88.9%.

Take `O=C(O)[C@H](Cc1c[nH]c2ccc(OCCCCC3CCNCC3)cc12)NS(=O)(=O)c1ccc(Br)cc1`: in [2], the inhibition came out at 81.2%. Besides, the Time in the data set with Mus musculus [7] is recorded as 13.5 min; in the data set on Mus musculus [5], 11.8 min; in the data set on Mus musculus [10], 10.6 min. Moreover, the results for the Activity with Rattus norvegicus [8], with Rattus norvegicus [4] and in the data set on Rattus norvegicus [9] were 41.7%, 26.6% and “Dose-dependent effect”, respectively. Turning to `O=C(O)[C@H](Cc1c[nH]c2ccc(OCCCCC3CCNCC3)cc12)NS(=O)(=O)c1ccc(F)cc1`, in data set [2], the inhibition is 57.1%. On to `O=C(N[C@@H](Cc1c[nH]c2ccc(OCCCCN3CCNCC3)cc12)C(=O)O)c1ccccc1`, for which, in [1], the inhibition was determined as 83.3%. For the molecule `CCCCS(=O)(=O)N[C@@H](Cc1c[nH]c2ccc(OCCCCC3CCNCC3)cc12)C(=O)O`, in data set [1], the inhibition is 52.4%. The same measure, in the same setting: the same measure for `CCCC(=O)N[C@@H](Cc1c[nH]c2ccc(OCCN3CCN(C)CC3)cc12)C(=O)O`: 12.4%.
